Source: US20060063736A1, “Compositions and methods for inhibiting mucin-type O-linked glycosylation” (priority 2004, published 2006)

Experiments:
[1] = target: T1, UDP-GlcNAc/GalNAc C4-epimerase (Homo sapiens, UniProt Q14376); conditions: Winans and Bertozzi (2002); cited from earlier work
T1 sequence (Q14376 1-348): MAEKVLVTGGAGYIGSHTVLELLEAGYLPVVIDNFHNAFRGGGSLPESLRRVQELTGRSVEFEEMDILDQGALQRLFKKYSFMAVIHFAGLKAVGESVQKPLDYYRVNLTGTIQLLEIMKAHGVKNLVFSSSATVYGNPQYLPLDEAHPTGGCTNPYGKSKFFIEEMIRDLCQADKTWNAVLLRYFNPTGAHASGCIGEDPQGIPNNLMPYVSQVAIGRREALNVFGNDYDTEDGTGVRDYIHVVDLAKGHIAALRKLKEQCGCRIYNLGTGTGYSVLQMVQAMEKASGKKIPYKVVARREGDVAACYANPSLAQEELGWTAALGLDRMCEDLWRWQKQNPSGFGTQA

mppGalNAcT-2 = target: T2, mppGalNAcT-2 (Mus musculus, UniProt Q6PB93); test: ELLA for ppGalNAcTs, mppGalNAcT-2; format: biochemical, murine; conditions: 20 μM UDP-GalNAc, 50 μM EA2 peptide 4
T2 construct: plasmids encoding truncated secreted ppGalNAcTs-1 to −5, -7, -10 and -11; made in house; host or cells: COS-7
T2 sequence (Q6PB93 25-570 limits assumed): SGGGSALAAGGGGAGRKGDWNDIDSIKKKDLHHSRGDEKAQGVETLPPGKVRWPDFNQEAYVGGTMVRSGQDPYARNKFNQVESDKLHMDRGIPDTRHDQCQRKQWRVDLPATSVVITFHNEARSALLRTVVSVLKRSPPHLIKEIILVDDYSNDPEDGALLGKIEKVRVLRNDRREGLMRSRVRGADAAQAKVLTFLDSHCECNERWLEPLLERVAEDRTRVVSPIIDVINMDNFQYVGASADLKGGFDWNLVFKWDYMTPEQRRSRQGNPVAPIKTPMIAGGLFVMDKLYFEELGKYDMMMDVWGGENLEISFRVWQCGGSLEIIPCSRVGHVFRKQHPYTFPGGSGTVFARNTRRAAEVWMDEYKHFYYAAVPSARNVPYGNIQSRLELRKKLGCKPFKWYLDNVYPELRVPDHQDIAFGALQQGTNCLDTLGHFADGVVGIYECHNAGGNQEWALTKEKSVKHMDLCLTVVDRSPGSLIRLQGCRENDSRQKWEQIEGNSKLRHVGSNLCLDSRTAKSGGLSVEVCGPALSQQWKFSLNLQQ
Protocol: COS-7 cells were transiently transfected with plasmids encoding truncated secreted ppGalNAcTs-1 to −5, -7, -10 and -11 as previously described. Hagen et al. (1997) J. Biol. Chem. 272:13843-13848. The crude conditioned medium was used as the enzyme source.
Standard reaction conditions for ppGalNAcT assays were as follows. The reaction mixture contained the following components in a final volume of 25 μL: 10 mM MnCl2, 40 mM sodium cacodylate, 40 mM β-mercaptoethanol, 0.1% Triton X-100, pH 6.5, 5 μL of conditioned media, and various concentrations of EA2 peptide 4, UDP-GalNAc and inhibitor. All uridine-based compounds were dissolved in dimethyl sulfoxide (DMSO). […] Reaction rates were linear over the period monitored (20-30 min).
96-Well NeutrAvidin-coated plates were prewashed 3 times with 200 μL of wash buffer (25 mM Tris, 150 mM NaCl, 0.1% bovine serum albumin (BSA) (w/v), and 0.05% Tween (v/v), pH 7.2). […] After 3 washes with 200 μL of PBS, bound HPA-HRP was quantified by the addition of 100 μL of TMB peroxide solution. […] HRP activity was terminated by the addition of 50 μL of 2 N H2SO4 and the resulting solution was analyzed at 450 nm using a UV/Vis microtiter plate reader. The amount of product generated by the ppGalNAcT was extrapolated from absorbance values using an equation fit to the standard curve derived from Origin 6.1 software.

rppGalNAcT-7 = target: T3, rppGalNAcT-7 (Rattus norvegicus, UniProt Q9R0C5); test: Radiolabel capture assay, rppGalNAcT-7; format: biochemical; conditions: MUC5AC glycopeptide
T3 construct: plasmids encoding truncated secreted ppGalNAcTs-1 to −5, -7, -10 and -11; made in house; host or cells: COS-7
T3 sequence (Q9R0C5 30-657 limits assumed): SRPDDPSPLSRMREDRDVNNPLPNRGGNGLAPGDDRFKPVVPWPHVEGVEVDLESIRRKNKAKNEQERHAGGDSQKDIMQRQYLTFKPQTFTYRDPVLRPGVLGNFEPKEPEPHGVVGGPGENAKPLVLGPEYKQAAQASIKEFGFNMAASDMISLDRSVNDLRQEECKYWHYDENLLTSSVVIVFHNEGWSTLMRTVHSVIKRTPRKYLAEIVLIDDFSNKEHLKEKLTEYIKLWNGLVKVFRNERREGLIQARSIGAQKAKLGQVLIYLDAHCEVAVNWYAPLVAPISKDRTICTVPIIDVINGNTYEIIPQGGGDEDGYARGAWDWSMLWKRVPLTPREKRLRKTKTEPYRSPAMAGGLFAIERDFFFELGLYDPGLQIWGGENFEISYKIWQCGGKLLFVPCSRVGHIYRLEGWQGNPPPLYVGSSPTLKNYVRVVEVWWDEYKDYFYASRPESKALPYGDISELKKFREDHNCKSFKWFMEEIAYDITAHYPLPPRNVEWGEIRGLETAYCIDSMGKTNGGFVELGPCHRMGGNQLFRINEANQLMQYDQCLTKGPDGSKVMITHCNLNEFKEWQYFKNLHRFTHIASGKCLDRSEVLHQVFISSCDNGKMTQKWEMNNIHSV
Protocol: Radiolabel capture assays using ^14C-labeled UDP-GalNAc were performed as previously described with various concentrations of 1-68A or 2-68A in 2% DMSO. Ten Hagen et al. (2001) J. Biol. Chem. 276:17395-17404.
Table 1. IC50 values for 1-68A and 2-68A with ppGalNAcTs-1 to −5, -7, -10, -11, β1-4GalT and α1-3GalT. The requirement of glycopeptides as substrates for ppGalNAcT-7 and -10 precluded the use of the ELLA, as both the substrate and product bind HPA-HRP. Thus, the radiolabel capture assay was employed to measure the IC50 values of 1-68A and 2-68A with ppGalNAcT-7 and -10 using MUC5AC (GTTPSPVPTTSTTSAP; SEQ ID NO:15) glycopeptide, previously shown to be substrate for both enzymes. Ten Hagen et al. (1999) J. Biol. Chem. 274:27867-27874; and Ten Hagen et al. (2001) J. Biol. Chem. 276:17395-17404. IC50 values of 1-68A and 2-68A with ppGalNAcT-5 were performed with α-FLAG purified enzyme and radiolabel capture assay, due to low activity and stability of the crude enzyme. m=murine, r=rattus.

SMILES | identified in library screen against UDP-GlcNAc/GalNAc C4-epimerase [1] | IC50 (mppGalNAcT-2) [µM] | IC50 (rppGalNAcT-7) [µM]
O=c1ccn([C@@H]2O[C@H](CON=Cc3ccc(O)c(O)c3O)[C@@H](O)[C@H]2O)c(=O)[nH]1 [1-68A] | not identified | 15 ± 1 | 22 ± 2
O=C(CON=Cc1ccc(O)c(O)c1O)NC[C@H]1O[C@@H](n2ccc(=O)[nH]c2=O)[C@H](O)[C@@H]1O [2-68A] | not identified | 18 ± 2 | 27 ± 2
